Laboratory results as given in PubChem BioAssay AID296 (DTP/NCI, 2004).
“And” between values parts separate entries of the source, which are not always exact repeats. Equal entries are not always repeated. Results filed as inconclusive are left out.

Test system: MX-1 breast xenograft, nude mice, tumor weight T/C
Assay: NCI In Vivo Anticancer Drug Screen. Data for tumor model Human Mammary Carcinoma MX-1 Xenograft (intrarenal inoculation) in NU/NU Swiss (nude) mice
Conditions: endpoint: mean tumor weight change, higher = larger tumour
Procedure, shortened: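 Activity is given as a ratio, with each measurement in the compound-treated arm divided by the matching measurement in vehicle-dosed controls. Tumour size or survival serves as the measured parameter.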

[1] = dose: 150.0 mg/kg/injection, schedule: Q04DX003 (sc), vehicle: Klucel (hydroxypropylcellulose) (HPC)
[2] = dose: 300.0 mg/kg/injection, schedule: Q04DX003 (sc), vehicle: Klucel (hydroxypropylcellulose) (HPC)
[3] = dose: 600.0 mg/kg/injection, schedule: Q04DX003 (sc), vehicle: Klucel (hydroxypropylcellulose) (HPC)
[4] = dose: 300.0 mg/kg/injection, schedule: Q04DX003 (sc), vehicle: saline with Tween-80
[5] = dose: 600.0 mg/kg/injection, schedule: Q04DX003 (sc), vehicle: saline with Tween-80
[6] = dose: 25.0 mg/kg/injection, schedule: Q01DX010 (sc), vehicle: Klucel (hydroxypropylcellulose) (HPC)
[7] = dose: 300.0 mg/kg/injection, schedule: Q04DX003 (sc), vehicle: saline
[8] = dose: 4.5 mg/kg/injection, schedule: Q01DX010 (sc), vehicle: Klucel (hydroxypropylcellulose) (HPC)
[9] = dose: 18.0 mg/kg/injection, schedule: Q01DX010 (sc), vehicle: Klucel (hydroxypropylcellulose) (HPC)
[10] = dose: 36.0 mg/kg/injection, schedule: Q01DX010 (sc), vehicle: Klucel (hydroxypropylcellulose) (HPC)
[11] = dose: 1200.0 mg/kg/injection, schedule: Q04DX003 (sc), vehicle: Klucel (hydroxypropylcellulose) (HPC)

Q: `Cc1ccc(S(=O)(=O)N/N=C/C(Br)=C(/Br)C(=O)O)cc1` was tested. Which T/C (dose: 2.5 mg/kg/injection, schedule: Q04DX003 (sc), vehicle: saline) did it give?
A: The T/C was 95 % of control.

Q: And the T/C (dose: 5.0 mg/kg/injection, schedule: Q04DX003 (sc), vehicle: saline)?
A: Its T/C is 100 % of control.

Q: What about the T/C (dose: 10.0 mg/kg/injection, schedule: Q04DX003 (sc), vehicle: saline) of the same compound?
A: The T/C was 100 % of control.

Q: What about the T/C (dose: 20.0 mg/kg/injection, schedule: Q04DX003 (sc), vehicle: saline) of the same compound?
A: Its T/C is 78 % of control.

Q: And the T/C [1]?
A: Its T/C is 80 % of control.

Q: And the T/C [2]?
A: Its T/C is 71 % of control.

Q: What about the T/C [3] of the same compound?
A: Its T/C is 26 % of control.

Q: How did the T/C (dose: 75.0 mg/kg/injection, schedule: Q04DX003 (sc), vehicle: Klucel (hydroxypropylcellulose) (HPC)) turn out when `C=C(Cl)C(=NC(C)(C)C)Nc1ccccc1C` was run?
A: The T/C was 96 % of control.

Q: For `CCCCCCCCCCCCCCCCCC(=O)OCC(=O)OCC(=O)[C@]1(O)Cc2c(O)c3c(c(O)c2[C@@H](OC2CC(N)C(O)C(C)O2)C1)C(=O)c1c(OC)cccc1C3=O` (some centres undefined), which T/C (dose: 6.0 mg/kg/injection, schedule: Q01DX010 (sc), vehicle: water) is on record?
A: Its T/C is 48 % of control.

Q: What about the T/C (dose: 12.0 mg/kg/injection, schedule: Q01DX010 (sc), vehicle: water) of the same compound?
A: Its T/C is 21 % of control.

Q: For `O=Cc1c(O)c2ccccc2[nH]c1=O`, which T/C (dose: 150.0 mg/kg/injection, schedule: Q04DX003 (sc), vehicle: saline with Tween-80) is on record?
A: Its T/C is 118 % of control.

Q: What about the T/C [4] of the same compound?
A: Its T/C is 99 % of control.

Q: What about the T/C [5] of the same compound?
A: The T/C was 86 % of control.

Q: What does the source list for `CC/C(=C(\c1ccccc1)c1ccc(OCCN(C)C)cc1)c1ccccc1`?
A: T/C [6]: 171 % of control; T/C (dose: 50.0 mg/kg/injection, schedule: Q01DX010 (sc), vehicle: Klucel (hydroxypropylcellulose) (HPC)): 178 % of control; T/C (dose: 100.0 mg/kg/injection, schedule: Q01DX010 (sc), vehicle: Klucel (hydroxypropylcellulose) (HPC)): 83 % of control; T/C (dose: 100.0 mg/kg/injection, schedule: Q04DX003 (sc), vehicle: suspension in saline): 61 % of control; T/C (dose: 200.0 mg/kg/injection, schedule: Q01DX010 (sc), vehicle: Klucel (hydroxypropylcellulose) (HPC)): 240 % of control; T/C (dose: 200.0 mg/kg/injection, schedule: Q04DX003 (sc), vehicle: suspension in saline): 68 % of control; T/C (dose: 400.0 mg/kg/injection, schedule: Q04DX003 (sc), vehicle: suspension in saline): 89 % of control; T/C (dose: 800.0 mg/kg/injection, schedule: Q04DX003 (sc), vehicle: suspension in saline): 73 % of control

Q: For `CCC(C(=O)O)C(=O)O.[NH2-].[NH2-].[Pt+2]`, which T/C (dose: 75.0 mg/kg/injection, schedule: Q04DX003 (sc), vehicle: saline) is on record?
A: The T/C was -95 % of control.

Q: What about the T/C (dose: 150.0 mg/kg/injection, schedule: Q04DX003 (sc), vehicle: saline) of the same compound?
A: Its T/C is -82 % of control.

Q: And the T/C [7]?
A: The T/C was -99 % of control.

Q: For `CC(=O)O[C@H]1C(=O)[C@@]2(C)[C@H]([C@H](OC(=O)c3ccccc3)[C@]3(O)C[C@H](OC(=O)[C@H](O)[C@@H](NC(=O)c4ccccc4)c4ccccc4)C(C)=C1C3(C)C)[C@]1(OC(C)=O)CO[C@@H]1C[C@@H]2O`, which T/C (dose: 2.5 mg/kg/injection, schedule: Q01DX010 (sc), vehicle: Klucel (hydroxypropylcellulose) (HPC)) is on record?
A: Its T/C is 83 % of control.

Q: What about the T/C (dose: 5.0 mg/kg/injection, schedule: Q01DX010 (sc), vehicle: Klucel (hydroxypropylcellulose) (HPC)) of the same compound?
A: The T/C was 77 % of control.

Q: What about the T/C (dose: 10.0 mg/kg/injection, schedule: Q01DX010 (sc), vehicle: Klucel (hydroxypropylcellulose) (HPC)) of the same compound?
A: The T/C was 46 % of control.

Q: And the T/C (dose: 20.0 mg/kg/injection, schedule: Q01DX010 (sc), vehicle: Klucel (hydroxypropylcellulose) (HPC))?
A: Its T/C is 73 % of control.

Q: And the T/C (dose: 40.0 mg/kg/injection, schedule: Q01DX010 (sc), vehicle: Klucel (hydroxypropylcellulose) (HPC))?
A: Its T/C is 48 % of control.

Q: And the T/C (dose: 80.0 mg/kg/injection, schedule: Q01DX010 (sc), vehicle: Klucel (hydroxypropylcellulose) (HPC))?
A: Its T/C is 36 % of control.

Q: And the T/C (dose: 400.0 mg/kg/injection, schedule: Q01DX010 (sc), vehicle: Klucel (hydroxypropylcellulose) (HPC))?
A: The T/C was 6 % of control.

Q: How did the T/C (dose: 100.0 mg/kg/injection, schedule: Q04DX003 (sc), vehicle: saline with Tween-80) turn out when `COc1cc(C2c3cc4c(cc3C(O)C(CO)C2CO)OCO4)cc(OC)c1OC` (centres undefined) was run?
A: Its T/C is 109 % of control.

Q: And the T/C (dose: 200.0 mg/kg/injection, schedule: Q04DX003 (sc), vehicle: saline with Tween-80)?
A: Its T/C is 97 % of control.

Q: And the T/C (dose: 400.0 mg/kg/injection, schedule: Q04DX003 (sc), vehicle: saline with Tween-80)?
A: Its T/C is 106 % of control.

Q: What about the T/C (dose: 800.0 mg/kg/injection, schedule: Q04DX003 (sc), vehicle: saline with Tween-80) of the same compound?
A: The T/C was 86 % of control.

Q: How did the T/C [4] turn out when `Cc1cc(O)c(N=Nc2ccc(C(=O)O)cc2)cc1C` was run?
A: Its T/C is 123 % of control.

Q: And the T/C [5]?
A: Its T/C is 124 % of control.

Q: What about the T/C (dose: 2400.0 mg/kg/injection, schedule: Q04DX003 (sc), vehicle: saline with Tween-80) of the same compound?
A: The T/C was 92 % of control.

Q: With `O=C(CCBr)N1CCN(C(=O)CCBr)CC1` as the compound, how does the T/C [8] read?
A: Its T/C is 111 % of control.

Q: And the T/C (dose: 12.5 mg/kg/injection, schedule: Q01DX010 (sc), vehicle: Klucel (hydroxypropylcellulose) (HPC))?
A: Its T/C is 52 % of control.

Q: And the T/C [9]?
A: The T/C was 33 % of control and 48 % of control.

Q: What about the T/C [6] of the same compound?
A: The T/C was 19 % of control.

Q: And the T/C [10]?
A: The T/C was 1 % of control and 9 % of control.

Q: Which results are given for `CONc1ccn(C2OC(CO)C(O)C2O)c(=O)n1` (centres undefined)?
A: T/C [7]: 86 % of control; T/C (dose: 600.0 mg/kg/injection, schedule: Q04DX003 (sc), vehicle: saline): 74 % of control; T/C (dose: 1200.0 mg/kg/injection, schedule: Q04DX003 (sc), vehicle: saline): 107 % of control; T/C (dose: 2400.0 mg/kg/injection, schedule: Q04DX003 (sc), vehicle: saline): 77 % of control

Q: `O=C(O)Cc1cccc2c(=O)cc(-c3ccccc3)oc12` was tested. Which T/C (dose: 100.0 mg/kg/injection, schedule: Q04DX003 (ip), vehicle: suspension in saline) did it give?
A: The T/C was 75 % of control.

Q: `Cc1ccc(NCCN(C)C)c2c(=O)c3cc(O)ccc3sc12` was tested. Which T/C [1] did it give?
A: The T/C was 54 % of control.

Q: What about the T/C [2] of the same compound?
A: Its T/C is 62 % of control.

Q: What about the T/C [3] of the same compound?
A: The T/C was 120 % of control.

Q: And the T/C [11]?
A: The T/C was 75 % of control.

Q: With `CC1(C)CC23C4COC(=O)C2CCC1C3CC4=O` (centres undefined) as the compound, how does the T/C (dose: 300.0 mg/kg/injection, schedule: Q04DX003 (sc), vehicle: DMSO) read?
A: Its T/C is 108 % of control.

Q: And the T/C (dose: 600.0 mg/kg/injection, schedule: Q04DX003 (sc), vehicle: DMSO)?
A: Its T/C is 82 % of control.

Q: What about the T/C (dose: 1200.0 mg/kg/injection, schedule: Q04DX003 (sc), vehicle: DMSO) of the same compound?
A: Its T/C is 104 % of control.

Q: And the T/C (dose: 2400.0 mg/kg/injection, schedule: Q04DX003 (sc), vehicle: DMSO)?
A: Its T/C is 74 % of control.

Q: For `N=C(N)Sc1ccccn1`, which T/C (dose: 25.0 mg/kg/injection, schedule: Q01DX010 (sc), vehicle: saline) is on record?
A: The T/C was 182 % of control.

Q: How did the T/C (dose: 150.0 mg/kg/injection, schedule: Q04DX003 (ip), vehicle: saline) turn out when `NCc1cc(O)c(O)c(O)c1` was run?
A: Its T/C is 115 % of control.

Q: What about the T/C (dose: 300.0 mg/kg/injection, schedule: Q04DX003 (ip), vehicle: saline) of the same compound?
A: Its T/C is 91 % of control.

Q: And the T/C (dose: 600.0 mg/kg/injection, schedule: Q04DX003 (ip), vehicle: saline)?
A: The T/C was 88 % of control.

Q: What does the source list for `O=C[C@@H](CO)O[C@H](C=O)c1c[nH]c(=O)[nH]c1=O`?
A: T/C (dose: 18.75 mg/kg/injection, schedule: Q04DX003 (ip), vehicle: saline): 91 % of control; T/C (dose: 37.5 mg/kg/injection, schedule: Q04DX003 (ip), vehicle: saline): 59 % of control; T/C (dose: 75.0 mg/kg/injection, schedule: Q04DX003 (ip), vehicle: saline): 35 % of control

Q: How did the T/C [8] turn out when `CC(C)(C)c1ccc(CN2CCN(C(c3ccccc3)c3ccc(Cl)cc3)CC2)cc1` (centres undefined) was run?
A: Its T/C is 96 % of control.

Q: And the T/C (dose: 9.0 mg/kg/injection, schedule: Q01DX010 (sc), vehicle: Klucel (hydroxypropylcellulose) (HPC))?
A: Its T/C is 101 % of control.

Q: What about the T/C [9] of the same compound?
A: Its T/C is 117 % of control.

Q: What about the T/C [10] of the same compound?
A: Its T/C is 101 % of control.

Q: What about the T/C [2] of the same compound?
A: Its T/C is 102 % of control.

Q: What about the T/C [3] of the same compound?
A: The T/C was 106 % of control.

Q: What about the T/C [11] of the same compound?
A: The T/C was 100 % of control.

Q: How did the T/C (dose: 6.25 mg/kg/injection, schedule: Q04DX003 (ip), vehicle: water) turn out when `CCN(CC)CCn1[nH]c2c3ccc(=O)cc3sc3c(NCCN)ccc1c32` was run?
A: The T/C was 73 % of control.

Q: And the T/C (dose: 12.5 mg/kg/injection, schedule: Q04DX003 (ip), vehicle: water)?
A: Its T/C is 63 % of control.

Q: For `C=C(C)[C@H]1Cc2c(ccc3c2O[C@@H]2COc4cc(OC)c(OC)cc4[C@@H]2C3=O)O1`, which T/C (dose: 4.0 mg/kg/injection, schedule: Q01DX010 (sc), vehicle: saline with Tween-80) is on record?
A: Its T/C is 94 % of control.

Q: And the T/C (dose: 8.0 mg/kg/injection, schedule: Q01DX010 (sc), vehicle: saline with Tween-80)?
A: Its T/C is 80 % of control.
